Laboratory results as given in the NIST ThermoML archive (doi:10.1021/je300557g).

Assay: xn = mol fraction of the nth substance listed
Settings: 101 kPa, Liquid; for mass density: Vibrating tube method

CCCC[n+]1ccccc1.F[B-](F)(F)F [1-butylpyridinium tetrafluoroborate] + CO
Settings | kinematic viscosity, 293.15 K [m2/s] | kinematic viscosity, 303.15 K [m2/s] | kinematic viscosity, 313.15 K [m2/s] | kinematic viscosity, 323.15 K [m2/s] | mass density, 293.15 K [kg/m3] | mass density, 303.15 K [kg/m3] | mass density, 313.15 K [kg/m3] | mass density, 323.15 K [kg/m3]
x1 = 0.0478 | 1.08e-06 | 8.99e-07 | 7.44e-07 | 6.21e-07 | 878.25 | 869.29 | 860.54 | 852.41
x1 = 0.0959 | 1.55e-06 | 1.27e-06 | 1.03e-06 | 8.64e-07 | 940.74 | 931.43 | 923.47 | 916
x1 = 0.1952 | 2.79e-06 | 2.21e-06 | 1.75e-06 | 1.44e-06 | 1026.08 | 1017.92 | 1010.59 | 1003.55
x1 = 0.2938 | 4.62e-06 | 3.53e-06 | 2.73e-06 | 2.2e-06 | 1080.36 | 1072.63 | 1065.38 | 1058.43
x1 = 0.3916 | 7.4e-06 | 5.61e-06 | 4.29e-06 | 3.41e-06 | 1117.45 | 1109.94 | 1102.7 | 1095.78
x1 = 0.4921 | 1.19e-05 | 8.77e-06 | 6.56e-06 | 5.13e-06 | 1145.14 | 1137.76 | 1130.52 | 1123.61
x1 = 0.5949 | 2e-05 | 1.4e-05 | 1.03e-05 | 7.68e-06 | 1166.53 | 1159.2 | 1152.11 | 1145.11
x1 = 0.6989 | 3.26e-05 | 2.22e-05 | 1.56e-05 | 1.16e-05 | 1183.41 | 1176.16 | 1169.22 | 1162.18
x1 = 0.7972 | 5.32e-05 | 3.4e-05 | 2.31e-05 | 1.65e-05 | 1196.34 | 1189.23 | 1182.46 | 1175.36
x1 = 0.8478 | 7.2e-05 | 4.49e-05 | 2.97e-05 | 2.07e-05 | 1202.15 | 1195.1 | 1188.42 | 1181.32
x1 = 0.8978 | 9.63e-05 | 5.72e-05 | 3.68e-05 | 2.51e-05 | 1207.4 | 1200.46 | 1193.84 | 1186.75
x1 = 0.9471 | 0.00013 | 7.39e-05 | 4.61e-05 | 3.06e-05 | 1212.3 | 1205.38 | 1198.8 | 1191.71
